Legend:
Carbonic anhydrase 1 = Carbonic anhydrase 1 (Homo sapiens, UniProt P00915); experiment: Inhibition of human recombinant carbonic anhydrase 1 assessed as CO2 hydration preincubated for 15 mins prior to testing measured for 10 to 100 secs by phenol red dye-based stopped-flow assay
Carbonic anhydrase 2 = Carbonic anhydrase 2 (Homo sapiens, UniProt P00918); experiment: Inhibition of human recombinant carbonic anhydrase 2 assessed as CO2 hydration preincubated for 15 mins prior to testing measured for 10 to 100 secs by phenol red dye-based stopped-flow assay
Carbonic anhydrase 7 = Carbonic anhydrase 7 (Homo sapiens, UniProt P43166); experiment: Inhibition of human recombinant carbonic anhydrase 7 assessed as CO2 hydration preincubated for 15 mins prior to testing measured for 10 to 100 secs by phenol red dye-based stopped-flow assay
Carbonic anhydrase 9 = Carbonic anhydrase 9 (Homo sapiens, UniProt Q16790); experiment: Inhibition of human recombinant carbonic anhydrase 9 assessed as CO2 hydration preincubated for 15 mins prior to testing measured for 10 to 100 secs by phenol red dye-based stopped-flow assay
Mus musculus [1] = experiment: Anticonvulsant activity in Swiss albino mouse assessed as protection against maximal electroshock-induced seizures at 30 mg/kg, ip administered 0.5 hrs prior to 50 mA current induction relative to control; type: functional
Mus musculus [2] = experiment: Anticonvulsant activity in Swiss albino mouse assessed as protection against maximal electroshock-induced seizures at 30 mg/kg, ip administered 3 hrs prior to 50 mA current induction relative to control; type: functional
Mus musculus [3] = experiment: Anticonvulsant activity in Swiss albino mouse assessed as protection against maximal electroshock-induced seizures at 100 mg/kg, ip administered 0.5 hrs prior to 50 mA current induction relative to control; type: functional
Mus musculus [4] = experiment: Anticonvulsant activity in Swiss albino mouse assessed as protection against maximal electroshock-induced seizures at 100 mg/kg, ip administered 3 hrs prior to 50 mA current induction relative to control; type: functional
Mus musculus [5] = experiment: Anticonvulsant activity in Swiss albino mouse assessed as protection against subcutaneous PTZ-induced seizures at 30 mg/kg, ip administered 0.5 hrs prior to PTZ-induction relative to control; type: functional
Mus musculus [6] = experiment: Anticonvulsant activity in Swiss albino mouse assessed as protection against subcutaneous PTZ-induced seizures at 30 mg/kg, ip administered 3 hrs prior to PTZ-induction relative to control; type: functional
Mus musculus [7] = experiment: Anticonvulsant activity in Swiss albino mouse assessed as protection against subcutaneous PTZ-induced seizures at 100 mg/kg, ip administered 0.5 hrs prior to PTZ-induction relative to control; type: functional
Mus musculus [8] = experiment: Anticonvulsant activity in Swiss albino mouse assessed as protection against subcutaneous PTZ-induced seizures at 100 mg/kg, ip administered 3 hrs prior to PTZ-induction relative to control; type: functional
Mus musculus [9] = experiment: Anticonvulsant activity in Swiss albino mouse assessed as protection against maximal electroshock-induced seizures at 30 mg/kg, ip administered 3 hrs prior to 50 mA current induction relative to control
Mus musculus [10] = experiment: Anticonvulsant activity in Swiss albino mouse assessed as protection against maximal electroshock-induced seizures at 100 mg/kg, ip administered 3 hrs prior to 50 mA current induction relative to control
Mus musculus [11] = experiment: Anticonvulsant activity in Swiss albino mouse assessed as protection against maximal electroshock-induced seizures at 30 mg/kg, ip administered 0.5 hrs prior to 50 mA current induction relative to control
Mus musculus [12] = experiment: Anticonvulsant activity in Swiss albino mouse assessed as protection against maximal electroshock-induced seizures at 100 mg/kg, ip administered 0.5 hrs prior to 50 mA current induction relative to control

Sequence of Carbonic anhydrase 1 (P00915 whole entry): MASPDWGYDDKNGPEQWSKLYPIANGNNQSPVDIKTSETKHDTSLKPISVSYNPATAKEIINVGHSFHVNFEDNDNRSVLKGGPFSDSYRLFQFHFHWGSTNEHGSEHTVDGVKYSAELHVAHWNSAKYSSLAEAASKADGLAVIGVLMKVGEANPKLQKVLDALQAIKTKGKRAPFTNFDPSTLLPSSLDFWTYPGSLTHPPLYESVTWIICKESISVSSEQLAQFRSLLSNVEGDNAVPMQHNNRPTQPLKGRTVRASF
Sequence of Carbonic anhydrase 7 (P43166 whole entry): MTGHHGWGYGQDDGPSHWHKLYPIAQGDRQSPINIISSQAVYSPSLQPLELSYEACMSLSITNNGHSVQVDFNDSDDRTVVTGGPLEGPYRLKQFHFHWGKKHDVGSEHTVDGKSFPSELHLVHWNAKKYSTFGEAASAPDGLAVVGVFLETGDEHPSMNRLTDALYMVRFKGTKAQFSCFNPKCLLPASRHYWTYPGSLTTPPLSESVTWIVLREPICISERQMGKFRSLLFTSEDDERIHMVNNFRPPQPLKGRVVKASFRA

NS(=O)(=O)c1ccc(N/N=C/c2ccc(N3CCN(c4ncccn4)CC3)cc2)cc1
Ki (Carbonic anhydrase 1): > 10 µM | Ki (Carbonic anhydrase 2): 8.4 µM | Ki (Carbonic anhydrase 7): 0.607 µM | Ki (Carbonic anhydrase 9): 2.23 µM

NS(=O)(=O)c1ccc(N/N=C/c2ccc(N3CCN(c4ccccc4)CC3)cc2)cc1
Ki (Carbonic anhydrase 1): 7.86 µM | Ki (Carbonic anhydrase 2): 0.888 µM | Ki (Carbonic anhydrase 7): 0.0984 µM | Ki (Carbonic anhydrase 9): 1.24 µM

NS(=O)(=O)c1ccc(C(=O)N/N=C/c2ccc(N3CCN(Cc4ccc5c(c4)OCO5)CC3)cc2)cc1
Ki (Carbonic anhydrase 1): 8.37 µM | Ki (Carbonic anhydrase 2): 0.962 µM | Ki (Carbonic anhydrase 7): 0.751 µM | Ki (Carbonic anhydrase 9): 0.0952 µM

NS(=O)(=O)c1ccc(N/N=C/c2ccc(N3CCN(C(=O)c4ccco4)CC3)cc2)cc1
Ki (Carbonic anhydrase 1): 0.322 µM | Ki (Carbonic anhydrase 2): 0.0308 µM | Ki (Carbonic anhydrase 7): 0.0062 µM | Ki (Carbonic anhydrase 9): 1.79 µM | Activity (Mus musculus [1]): 50% | Activity (Mus musculus [2]): 50% | Activity (Mus musculus [3]): 83% | Activity (Mus musculus [4]): 50% | Activity (Mus musculus [5]): 33% | Activity (Mus musculus [6]): 33% | Activity (Mus musculus [7]): 67% | Activity (Mus musculus [8]): 50% | Activity (Mus musculus [9]): 50% | Activity (Mus musculus [10]): 50% | Activity (Mus musculus [11]): 50% | Activity (Mus musculus [12]): 83%

NS(=O)(=O)c1ccc(N/N=C/c2ccc(N3CCN(c4ccc(F)cc4)CC3)cc2)cc1
Ki (Carbonic anhydrase 1): 2.38 µM | Ki (Carbonic anhydrase 2): 0.559 µM | Ki (Carbonic anhydrase 7): 0.0496 µM | Ki (Carbonic anhydrase 9): 1.27 µM

NS(=O)(=O)c1ccc(C(=O)N/N=C/c2ccc(N3CCN(Cc4ccccc4)CC3)cc2)cc1
Ki (Carbonic anhydrase 1): 7.1 µM | Ki (Carbonic anhydrase 2): 0.414 µM | Ki (Carbonic anhydrase 7): 0.0415 µM | Ki (Carbonic anhydrase 9): 0.163 µM

NS(=O)(=O)c1ccc(C(=O)N/N=C/c2ccc(N3CCN(c4ccccc4)CC3)cc2)cc1
Ki (Carbonic anhydrase 1): > 10 µM | Ki (Carbonic anhydrase 2): 4.13 µM | Ki (Carbonic anhydrase 7): 0.181 µM | Ki (Carbonic anhydrase 9): 0.276 µM

NS(=O)(=O)c1ccc(C(=O)N/N=C/c2ccc(N3CCN(c4ncccn4)CC3)cc2)cc1
Ki (Carbonic anhydrase 1): 2.06 µM | Ki (Carbonic anhydrase 2): 0.963 µM | Ki (Carbonic anhydrase 7): 0.132 µM | Ki (Carbonic anhydrase 9): 1.84 µM

NS(=O)(=O)c1ccc(N/N=C/c2ccc(N3CCN(C(=O)c4ccccc4)CC3)cc2)cc1
Ki (Carbonic anhydrase 1): > 10 µM | Ki (Carbonic anhydrase 2): 2.79 µM | Ki (Carbonic anhydrase 7): 0.127 µM | Ki (Carbonic anhydrase 9): 2.49 µM

NS(=O)(=O)c1ccc(C(=O)N/N=C/c2ccc(N3CCN(C(=O)c4ccco4)CC3)cc2)cc1
Ki (Carbonic anhydrase 1): 9.49 µM | Ki (Carbonic anhydrase 2): 0.686 µM | Ki (Carbonic anhydrase 7): 0.0788 µM | Ki (Carbonic anhydrase 9): 0.0304 µM

NS(=O)(=O)c1ccc(C(=O)N/N=C/c2ccc(N3CCN(C(=O)c4ccccc4)CC3)cc2)cc1
Ki (Carbonic anhydrase 1): 5.5 µM | Ki (Carbonic anhydrase 2): 0.308 µM | Ki (Carbonic anhydrase 7): 0.0947 µM | Ki (Carbonic anhydrase 9): 1.05 µM

NS(=O)(=O)c1ccc(N/N=C/c2ccc(N3CCN(c4ccccn4)CC3)cc2)cc1
Ki (Carbonic anhydrase 1): > 10 µM | Ki (Carbonic anhydrase 2): 4.59 µM | Ki (Carbonic anhydrase 7): 0.135 µM | Ki (Carbonic anhydrase 9): 0.235 µM

NS(=O)(=O)c1ccc(N/N=C/c2ccc(N3CCN(C(=O)OCc4ccccc4)CC3)cc2)cc1
Ki (Carbonic anhydrase 1): 0.92 µM | Ki (Carbonic anhydrase 2): 0.0939 µM | Ki (Carbonic anhydrase 7): 0.0114 µM | Ki (Carbonic anhydrase 9): 1.63 µM | Activity (Mus musculus [1]): 50% | Activity (Mus musculus [2]): 33% | Activity (Mus musculus [3]): 50% | Activity (Mus musculus [4]): 67% | Activity (Mus musculus [5]): 50% | Activity (Mus musculus [6]): 67% | Activity (Mus musculus [7]): 67% | Activity (Mus musculus [8]): 33% | Activity (Mus musculus [9]): 33% | Activity (Mus musculus [10]): 67% | Activity (Mus musculus [11]): 50% | Activity (Mus musculus [12]): 50%

NS(=O)(=O)c1ccc(C(=O)N/N=C/c2ccc(N3CCN(c4ccc(F)cc4)CC3)cc2)cc1
Ki (Carbonic anhydrase 1): 5.8 µM | Ki (Carbonic anhydrase 2): 0.822 µM | Ki (Carbonic anhydrase 7): 0.147 µM | Ki (Carbonic anhydrase 9): 1.96 µM

NS(=O)(=O)c1ccc(C(=O)N/N=C/c2ccc(N3CCN(C(=O)OCc4ccccc4)CC3)cc2)cc1
Ki (Carbonic anhydrase 1): 9.64 µM | Ki (Carbonic anhydrase 2): 1.45 µM | Ki (Carbonic anhydrase 7): 0.121 µM | Ki (Carbonic anhydrase 9): 1.9 µM

NS(=O)(=O)c1ccc(N/N=C/c2ccc(N3CCN(c4ccc(C(F)(F)F)cc4)CC3)cc2)cc1
Ki (Carbonic anhydrase 1): 9.47 µM | Ki (Carbonic anhydrase 2): 7.52 µM | Ki (Carbonic anhydrase 7): 0.118 µM | Ki (Carbonic anhydrase 9): 1.93 µM

NS(=O)(=O)c1ccc(C(=O)N/N=C/c2ccc(N3CCN(c4ccccn4)CC3)cc2)cc1
Ki (Carbonic anhydrase 1): > 10 µM | Ki (Carbonic anhydrase 2): 4.56 µM | Ki (Carbonic anhydrase 7): 0.126 µM | Ki (Carbonic anhydrase 9): 0.152 µM

Cc1ccc(N2CCN(c3ccc(/C=N/Nc4ccc(S(N)(=O)=O)cc4)cc3)CC2)c(C)c1
Ki (Carbonic anhydrase 1): 4.11 µM | Ki (Carbonic anhydrase 2): 0.553 µM | Ki (Carbonic anhydrase 7): 0.072 µM | Ki (Carbonic anhydrase 9): 1.74 µM

NS(=O)(=O)c1ccc(C(=O)N/N=C/c2ccc(N3CCN(c4ccc(C(F)(F)F)cc4)CC3)cc2)cc1
Ki (Carbonic anhydrase 1): 8.16 µM | Ki (Carbonic anhydrase 2): 0.556 µM | Ki (Carbonic anhydrase 7): 0.148 µM | Ki (Carbonic anhydrase 9): 1.85 µM

Source: ChEMBL document CHEMBL4270557, “Discovery of potent anti-convulsant carbonic anhydrase inhibitors: Design, synthesis, in vitro and in vivo appraisal” (Eur J Med Chem, 2018)
